From patent US11208399B2, “NLRP3 inflammasome inhibitors” (Novartis AG, priority 2019, dated 2021)
Where a name gives a salt, the structure may show the parent alone.

System: NF-kB-dependent TNF-α secretion
Experiment: TNF-α secretion assay in THP-1 cells (counter screen, HTRF)
Assay type: cell-based
Settings: Homo sapiens, Pam3CSK4-stimulated, 3 hours
Method: Monocytic THP-1 cells were maintained according to providers' instructions in RPMI media as described above. […] Experimental compounds were prepared and added as described above. TNF-α secretion was triggered by the addition of either 1 μg/mL LPS (Sigma, #L4391) or 100 ng/mL Pam3CSK4 (Invivogen, #tlrl-pms) depending on the experiment, and cells were incubated for 3 hours. 10 μL supernatant was removed, and TNF-α levels were monitored using an HTRF assay (CisBio, #62TNFPEC) according to manufacturers' instructions. Viability was monitored as described above.
IC50 values were calculated from the plot of percentage of inhibition versus the inhibitor concentration by a logistics fit according to: y=A2+(A1−A2)/(1+(x/IC50)^p) where y is the %-inhibition at the inhibitor concentration, x. A1 is the lowest inhibition value, i.e. 0%, and A2 the maximum inhibition value, i.e. 100%. The exponent, p, is the Hill coefficient. The curve fitting was conducted with an internally developed software suite. […]

## Cc1cc(C(F)(F)F)cc(O)c1-c1ccc(N[C@H]2CC[C@H]3CC[C@@H]2N3C)nn1 (single isomer, unassigned) [Ex 85a]
  IC50: > 100 µM

## Cc1cc(C(F)(F)F)cc(O)c1-c1ccc(N[C@H]2CC[C@H]3CC[C@@H]2N3CCO)nn1 (single isomer, unassigned) [Ex 86a]
  IC50: > 100 µM

## CCN1CCC[C@@H](Nc2ccc(-c3c(C)cc(C(F)(F)F)cc3O)nn2)C1 [Ex 1, (R)-2-(6-((1-Ethylpiperidin-3-yl)amino)pyridazin-3-yl)-3-methyl-5-(trifluoromethyl)phenol]
  IC50: > 100 µM

## Cc1cc(N[C@@H]2CCCN(C)C2)nnc1-c1ccc(C(F)(F)F)cc1O [Ex 4, (R)-2-(4-Methyl-6-((1-methylpiperidin-3-yl)amino)pyridazin-3-yl)-5-(trifluoromethyl)phenol]
  IC50: > 100 µM

## Cc1cc(-c2c(C)cc(C(F)(F)F)cc2O)nnc1N[C@@H]1CCCN(C)C1 [Ex 5, (R)-3-Methyl-2-(5-methyl-6-((1-methylpiperidin-3-yl)amino)pyridazin-3-yl)-5-(trifluoromethyl)phenol]
  IC50: > 33 µM

## Cc1cc(C(F)(F)F)cc(O)c1-c1ccc(N[C@@H]2CCCN(CCO)C2)nn1 [Ex 6, (R)-2-(6-((1-(2-Hydroxyethyl)piperidin-3-yl)amino)pyridazin-3-yl)-3-methyl-5-(trifluoromethyl)phenol]
  IC50: > 100 µM

## Cc1cc(C(F)(F)F)cc(O)c1-c1ccc(NC2CCCN(C(C)C)C2)nn1 (centres unmarked) [Ex 7, 2-(6-((1-Isopropylpiperidin-3-yl)amino)pyridazin-3-yl)-3-methyl-5-(trifluoromethyl)phenol]
  IC50: > 100 µM

## Cc1cc(C(F)(F)F)cc(O)c1-c1ccc(NC2CNCC(F)(F)C2)nn1 (centres unmarked) [Ex 9, 2-(6-((5,5-Difluoropiperidin-3-yl)amino)pyridazin-3-yl)-3-methyl-5-(trifluoromethyl)phenol]
  IC50: > 100 µM

## CCN1CCC[C@@H](Nc2nnc(-c3c(C)cc(C(F)(F)F)cc3O)cc2C#N)C1 [Ex 11, (R)-3-((1-Ethylpiperidin-3-yl)amino)-6-(2-hydroxy-6-methyl-4-(trifluoromethyl)phenyl)pyridazine-4-carbonitrile]
  IC50: > 100 µM

## Cc1cc(C(F)(F)F)cc(O)c1-c1ccc(N[C@@H]2CCCN(C)C2)nn1 [Ex 12, (R)-3-Methyl-2-(6-((1-methylpiperidin-3-yl)amino)pyridazin-3-yl)-5-(trifluoromethyl)phenol]
  IC50: > 100 µM

## Cc1cc(-c2c(C)cc(C(F)(F)F)cc2O)nnc1N[C@@H]1CCCN(CCO)C1 [Ex 13, (R)-2-(6-((1-(2-Hydroxyethyl)piperidin-3-yl)amino)-5-methylpyridazin-3-yl)-3-methyl-5-(trifluoromethyl)phenol]
  IC50: > 100 µM

## Cc1cc(C(F)(F)F)cc(O)c1-c1ccc(N[C@H]2CCN(C)C2)nn1 [Ex 18, (S)-3-Methyl-2-(6-((1-methylpyrrolidin-3-yl)amino)pyridazin-3-yl)-5-(trifluoromethyl)phenol]
  IC50: > 100 µM

## Oc1cc(Cl)cc(Cl)c1-c1ccc(NCC(F)(F)F)nn1 [Ex 27, 3,5-Dichloro-2-(6-((2,2,2-trifluoroethyl)amino)pyridazin-3-yl)phenol]
  IC50: > 100 µM

## Cc1cc(C(F)(F)F)cc(O)c1-c1ccc(N[C@H]2CCCNC2)nn1 [Ex 33, (S)-3-Methyl-2-(6-(piperidin-3-ylamino)pyridazin-3-yl)-5-(trifluoromethyl)phenol]
  IC50: > 100 µM

## Cc1cc(C(F)(F)F)cc(O)c1-c1ccc(N[C@H]2CCCN(C)C2)nn1 [Ex 36, (S)-3-Methyl-2-(6-((1-methylpiperidin-3-yl)amino)pyridazin-3-yl)-5-(trifluoromethyl)phenol]
  IC50: > 100 µM

## CN1CCC[C@@H](Nc2ccc(-c3c(O)cc(C(F)(F)F)cc3C(F)(F)F)nn2)C1 [Ex 39, (R)-2-(6-((1-Methylpiperidin-3-yl)amino)pyridazin-3-yl)-3,5-bis(trifluoromethyl)phenol]
  IC50: > 100 µM

## Cc1cc(C(F)(F)F)cc(O)c1-c1nnc(N[C@@H]2CCCN(C)C2)c(C)c1C [Ex 40, 2-(4,5-Dimethyl-6-(((R)-1-methylpiperidin-3-yl)amino)pyridazin-3-yl)-3-methyl-5-(trifluoromethyl)phenol TFA-salt]
  IC50: > 33 µM

## Cc1cc(C(F)(F)F)cc(O)c1-c1ccc(O[C@@H]2CCCN(C)C2)nn1 [Ex 42, (R)-3-Methyl-2-(6-((1-methylpiperidin-3-yl)oxy)pyridazin-3-yl)-5-(trifluoromethyl)phenol]
  IC50: > 100 µM

## Oc1cc(Cl)cc(Cl)c1-c1ccc(NC2CC2)nn1 [Ex 44, 3,5-Dichloro-2-(6-(cyclopropylamino)pyridazin-3-yl)phenol]
  IC50: > 100 µM

## CN1CCC[C@@H](Nc2ccc(-c3c(O)cc(Cl)cc3Cl)nn2)C1 [Ex 45, (R)-3,5-Dichloro-2-(6-((1-methylpiperidin-3-yl)amino)pyridazin-3-yl)phenol TFA-salt]
  IC50: > 100 µM

## Cc1cc(C(F)(F)F)cc(O)c1-c1ccc(Nc2cccnc2)nn1 [Ex 46, 3-Methyl-2-(6-(pyridin-3-ylamino)pyridazin-3-yl)-5-(trifluoromethyl)phenol]
  IC50: > 100 µM

## Cc1cc(C)c(-c2ccc(N[C@@H]3CCCN(C)C3)nn2)c(O)c1 [Ex 47, (R)-3,5-Dimethyl-2-(6-((1-methylpiperidin-3-yl)amino)pyridazin-3-yl)phenol]
  IC50: > 100 µM

## Cc1c(N[C@@H]2CCCN(C)C2)nnc(-c2ccc(C(F)(F)F)cc2O)c1C [Ex 48, (R)-2-(4,5-Dimethyl-6-((1-methylpiperidin-3-yl)amino)pyridazin-3-yl)-5-(trifluoromethyl)phenol]
  IC50: > 100 µM

## CN1CCC[C@@H](Nc2ccc(-c3c(O)cc(C(F)(F)F)cc3Cl)nn2)C1 [Ex 49, (R)-3-Chloro-2-(6-((1-methylpiperidin-3-yl)amino)pyridazin-3-yl)-5-(trifluoromethyl)phenol]
  IC50: > 100 µM

## Cc1ccc(-c2nnc(N[C@@H]3CCCN(C)C3)cc2C(F)(F)F)c(O)c1 [Ex 50, (R)-5-Methyl-2-(6-((1-methylpiperidin-3-yl)amino)-4-(trifluoromethyl)pyridazin-3-yl)phenol]
  IC50: > 100 µM

## CN1CCC[C@@H](Nc2ccc(-c3c(O)cc(Cl)cc3C(F)(F)F)nn2)C1 [Ex 51, (R)-5-Chloro-2-(6-((1-methylpiperidin-3-yl)amino)pyridazin-3-yl)-3-(trifluoromethyl)phenol]
  IC50: > 100 µM

## CN1CCC[C@@H](Nc2cc(C(F)(F)F)c(-c3ccc(C(F)(F)F)cc3O)nn2)C1 [Ex 53, (R)-2-(6-((1-Methylpiperidin-3-yl)amino)-4-(trifluoromethyl)pyridazin-3-yl)-5-(trifluoromethyl)phenol]
  IC50: > 33 µM

## Cc1cc(C(F)(F)F)cc(O)c1-c1ccc(NC2CCC(C(F)(F)F)NC2)nn1 (centres unmarked) [Ex 62, 3-Methyl-5-(trifluoromethyl)-2-(6-((6-(trifluoromethyl)piperidin-3-yl)amino)pyridazin-3-yl)phenol]
  IC50: > 100 µM

## Cc1cc(C(F)(F)F)cc(O)c1-c1cc(C(F)(F)F)c(N[C@@H]2CCCN(C)C2)nn1 [Ex 64, (R)-3-Methyl-2-(6-((1-methylpiperidin-3-yl)amino)-5-(trifluoromethyl)pyridazin-3-yl)-5-(trifluoromethyl)phenol]
  IC50: > 100 µM

## Cc1cc(-c2ccc(C(F)(F)F)cc2O)nnc1N[C@@H]1CCCN(C)C1 [Ex 65, (R)-2-(5-Methyl-6-((1-methylpiperidin-3-yl)amino)pyridazin-3-yl)-5-(trifluoromethyl)phenol]
  IC50: > 33 µM

## CN1CCC[C@@H](Nc2cc(C(F)(F)F)c(-c3ccc(Cl)cc3O)nn2)C1 [Ex 70, (R)-5-Chloro-2-(6-((1-methylpiperidin-3-yl)amino)-4-(trifluoromethyl)pyridazin-3-yl)phenol]
  IC50: > 100 µM

## Cc1cc(N[C@@H]2CCCN(C)C2)nnc1-c1ccc(Cl)cc1O [Ex 71, (R)-5-Chloro-2-(4-methyl-6-((1-methylpiperidin-3-yl)amino)pyridazin-3-yl)phenol]
  IC50: > 100 µM

## Cc1cc(C(F)(F)F)cc(O)c1-c1ccc(N[C@@H]2CCCNC2)nn1 [Ex 74, (R)-3-Methyl-2-(6-(piperidin-3-ylamino)pyridazin-3-yl)-5-(trifluoromethyl)phenol]
  IC50: > 100 µM

## Cc1cc(C(F)(F)F)cc(O)c1-c1ccc(N[C@@H]2CCCN(CC(C)(C)O)C2)nn1 [Ex 80, (R)-2-(6-((1-(2-Hydroxy-2-methylpropyl)piperidin-3-yl)amino)pyridazin-3-yl)-3-methyl-5-(trifluoromethyl)phenol]
  IC50: > 33 µM

## Cc1cc(N[C@@H]2CCCN(C)C2)nnc1-c1ccc(OC(F)(F)F)cc1O [Ex 82, (R)-2-(4-Methyl-6-((1-methylpiperidin-3-yl)amino)pyridazin-3-yl)-5-(trifluoromethoxy)phenol]
  IC50: > 100 µM

## Cc1cc(C(F)(F)F)cc(O)c1-c1ccc(N[C@@H]2CC[C@H](CO)N(C)C2)nn1 [Ex 87a, 2-(6-(((3R,6R)-6-(Hydroxymethyl)-1-methylpiperidin-3-yl)amino)pyridazin-3-yl)-3-methyl-5-(trifluoromethyl)phenol]
  IC50: > 100 µM

## Cc1cc(C(F)(F)F)cc(O)c1-c1ccc(N[C@H]2CC[C@@H](CO)N(C)C2)nn1 [Ex 87b, 2-(6-(((3S,6S)-6-(Hydroxymethyl)-1-methylpiperidin-3-yl)amino)pyridazin-3-yl)-3-methyl-5-(trifluoromethyl)phenol]
  IC50: 77 µM

## Cc1cc(C(F)(F)F)cc(O)c1-c1ccc(N[C@H]2CCCN[C@H]2C)nn1 [Ex 91a, 3-Methyl-2-(6-(((2S,3S)-2-methylpiperidin-3-yl)amino)pyridazin-3-yl)-5-(trifluoromethyl)phenol]
  IC50: > 100 µM
